Data taken from PubChem BioAssay AID330 (DTP/NCI, 2004).
“And” between values parts separate entries of the source, which are not always exact repeats. Equal values may be shown once. Inconclusive results and toxic doses are left out. Rule for the calls: active = survival T/C of 150% or more; inactive = T/C below 125% in these data.

System: P388 leukemia ip, CD2F1 mice, survival T/C
Experiment: NCI In Vivo Anticancer Drug Screen. Data for tumor model P388 Leukemia (intraperitoneal) in CD2F1 (CDF1) mice
Details: endpoint: median survival time, higher = longer survival
How it was run: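 Mice carrying the transplanted tumor received test compound or vehicle. Survival was recorded in each group, and the value is the treated-group measurement divided by that of the vehicle-treated control group.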

[1] = dose: 25.0 mg/kg/injection, schedule: Q01DX005 (ip), vehicle: Klucel (hydroxypropylcellulose) (HPC)
[2] = dose: 50.0 mg/kg/injection, schedule: Q01DX005 (ip), vehicle: Klucel (hydroxypropylcellulose) (HPC)
[3] = dose: 100.0 mg/kg/injection, schedule: Q01DX005 (ip), vehicle: Klucel (hydroxypropylcellulose) (HPC)
[4] = dose: 12.5 mg/kg/injection, schedule: Q01DX009 (ip), vehicle: saline with Tween-80
[5] = dose: 25.0 mg/kg/injection, schedule: Q01DX009 (ip), vehicle: saline with Tween-80
[6] = dose: 50.0 mg/kg/injection, schedule: Q01DX009 (ip), vehicle: saline with Tween-80
[7] = dose: 60.0 mg/kg/injection, schedule: Q01DX005 (ip), vehicle: saline
[8] = dose: 120.0 mg/kg/injection, schedule: Q01DX005 (ip), vehicle: saline
[9] = dose: 240.0 mg/kg/injection, schedule: Q01DX005 (ip), vehicle: saline
[10] = dose: 200.0 mg/kg/injection, schedule: Q01DX005 (ip), vehicle: Klucel (hydroxypropylcellulose) (HPC)
[11] = dose: 100.0 mg/kg/injection, schedule: Q04DX002 (ip), vehicle: saline with Tween-80
[12] = dose: 50.0 mg/kg/injection, schedule: Q01DX005 (ip), vehicle: saline with Tween-80
[13] = dose: 100.0 mg/kg/injection, schedule: Q01DX005 (ip), vehicle: saline with Tween-80
[14] = dose: 200.0 mg/kg/injection, schedule: Q01DX005 (ip), vehicle: saline with Tween-80
[15] = dose: 100.0 mg/kg/injection, schedule: Q01DX001 (ip), vehicle: Klucel (hydroxypropylcellulose) (HPC)
[16] = dose: 200.0 mg/kg/injection, schedule: Q01DX001 (ip), vehicle: Klucel (hydroxypropylcellulose) (HPC)
[17] = dose: 200.0 mg/kg/injection, schedule: Q04DX002 (ip), vehicle: saline with Tween-80
[18] = dose: 400.0 mg/kg/injection, schedule: Q04DX002 (ip), vehicle: saline with Tween-80

Measured: T/C

C=C(C)C(=O)NC(Cc1cnc[nH]1)C(=O)O (stereo unspecified)
inactive: dose: 50.0 mg/kg/injection, schedule: Q01DX009 (ip), vehicle: saline 106 % of control | dose: 100.0 mg/kg/injection, schedule: Q01DX009 (ip), vehicle: saline 107 % of control | dose: 200.0 mg/kg/injection, schedule: Q01DX009 (ip), vehicle: saline 107 % of control

CC(=O)Nc1ccc(S(=O)(=O)n2c(=O)oc3cc(Br)ccc32)cc1
inactive: [1] 94 % of control | [2] 87 % of control and 90 % of control | [3] 87 % of control and 90 % of control

Clc1ccc(CNc2ncnc3[nH]ncc23)cc1Cl
inactive: dose: 100.0 mg/kg/injection, schedule: Q04DX003 (ip), vehicle: saline with Tween-80 104 % of control | dose: 200.0 mg/kg/injection, schedule: Q04DX003 (ip), vehicle: saline with Tween-80 100 % of control | dose: 400.0 mg/kg/injection, schedule: Q04DX003 (ip), vehicle: saline with Tween-80 95 % of control

CCCCCCC(=O)/C=C/c1ccc(OC(=O)c2ccc(Br)cc2)cc1
inactive: [4] 104 % of control | [5] 96 % of control | [6] 96 % of control

CS(=O)(=O)C(c1nc2n(c1O)/C(=N/C(=O)Nc1ccc(Cl)cc1)N=N2)c1nc2n(c1O)/C(=N/C(=O)Nc1ccc(Cl)cc1)N=N2
inactive: [7] 97 % of control | [8] 96 % of control | [9] 95 % of control

Cc1ccc(NC(=S)NNC(=S)NNc2ccccc2)cc1C
inactive: [3] 95 % of control | [10] 101 % of control | dose: 400.0 mg/kg/injection, schedule: Q01DX005 (ip), vehicle: Klucel (hydroxypropylcellulose) (HPC) 106 % of control

CCOC(=O)Cc1ccc(-c2csc(Nc3ccccc3)n2)cc1
inactive: dose: 50.0 mg/kg/injection, schedule: Q01DX009 (ip), vehicle: Klucel (hydroxypropylcellulose) (HPC) 106 % of control | dose: 100.0 mg/kg/injection, schedule: Q01DX009 (ip), vehicle: Klucel (hydroxypropylcellulose) (HPC) 98 % of control | dose: 200.0 mg/kg/injection, schedule: Q01DX009 (ip), vehicle: Klucel (hydroxypropylcellulose) (HPC) 98 % of control

COc1cc2c(cc1OC)-c1cccc3c1N(CC2)CC3
inactive: dose: 25.0 mg/kg/injection, schedule: Q04DX002 (ip), vehicle: saline with Tween-80 100 % of control | dose: 50.0 mg/kg/injection, schedule: Q04DX002 (ip), vehicle: saline with Tween-80 98 % of control | [11] 100 % of control

CCOC(=O)C1(CN(C)c2ccccc2)C(C(C)=O)=CNc2c(C#N)cnn21 (stereo unspecified)
inactive: [12] 99 % of control | [13] 98 % of control | [14] 106 % of control

COCCCNC(=O)c1nnn2c1nc(N)c1cc(Cl)ccc12
inactive: [2] 94 % of control | [3] 88 % of control

O=c1ccn(C2OC(COC(c3ccccc3)(c3ccccc3)c3ccccc3)C(O)C2OC(c2ccccc2)(c2ccccc2)c2ccccc2)c(=O)[nH]1 (stereo unspecified)
inactive: [1] 97 % of control | [2] 99 % of control | [3] 94 % of control | [10] 93 % of control

O=C1C(N=Nc2ccccc2Cl)C(O)N(c2ccccc2)C(=S)N1c1cccc(Cl)c1Cl (stereo unspecified)
inactive: [15] 98 % of control | [16] 103 % of control | dose: 400.0 mg/kg/injection, schedule: Q01DX001 (ip), vehicle: Klucel (hydroxypropylcellulose) (HPC) 97 % of control

COCCOC(=O)CCn1nc(-c2ccccc2)c(-c2ccccc2)c(C#N)c1=O
inactive: [11] 104 % of control | [17] 106 % of control | [18] 100 % of control

FC(F)(F)C1(C(F)(F)F)O[P+](c2ccccc2)(c2ccccc2)c2ccccc21
inactive: [2] 100 % of control | [3] 110 % of control | [10] 102 % of control

O=C1c2cc3ccccc3cc2NC(O)c2cccn21 (stereo unspecified)
inactive: dose: 0.1 mg/kg/injection, schedule: Q01DX005 (ip), vehicle: water 96 % of control | dose: 0.2 mg/kg/injection, schedule: Q01DX005 (ip), vehicle: water 91 % of control | dose: 0.4 mg/kg/injection, schedule: Q01DX005 (ip), vehicle: water 100 % of control | dose: 0.8 mg/kg/injection, schedule: Q01DX005 (ip), vehicle: water 107 % of control | dose: 1.6 mg/kg/injection, schedule: Q01DX005 (ip), vehicle: water 116 % of control | dose: 5.0 mg/kg/injection, schedule: Q01DX005 (ip), vehicle: distilled water + Tween-80 100 % of control | dose: 10.0 mg/kg/injection, schedule: Q01DX005 (ip), vehicle: distilled water + Tween-80 107 % of control | dose: 20.0 mg/kg/injection, schedule: Q01DX005 (ip), vehicle: distilled water + Tween-80 100 % of control | dose: 40.0 mg/kg/injection, schedule: Q01DX005 (ip), vehicle: distilled water + Tween-80 99 % of control | dose: 80.0 mg/kg/injection, schedule: Q01DX005 (ip), vehicle: distilled water + Tween-80 101 % of control

O=C1c2cc([N+](=O)[O-])cc3cc([N+](=O)[O-])cc(c23)C(=O)N1CCCNCCNCCCN1C(=O)c2cc([N+](=O)[O-])cc3cc([N+](=O)[O-])cc(c23)C1=O
inactive: [12] 100 % of control | [13] 100 % of control | [14] 100 % of control

Cc1ccc(C(=O)C(c2nc3n(c2O)/C(=N/C(=O)Nc2ccc(Cl)cc2)N=N3)c2nc3n(c2O)/C(=N/C(=O)Nc2ccc(Cl)cc2)N=N3)cc1
inactive: [7] 99 % of control | [8] 97 % of control | [9] 87 % of control

CS(=O)(=O)N1C=Cc2ccccc2C=C1
inactive: [11] 99 % of control | [17] 90 % of control | [18] 99 % of control

CCC(C)C(NC(=O)c1ccccc1)C(=O)O (stereo unspecified)
inactive: [12] 90 % of control | [13] 106 % of control | [14] 97 % of control

Clc1cccc2nnc(Br)n12
inactive: dose: 50.0 mg/kg/injection, schedule: Q01DX001 (ip), vehicle: Klucel (hydroxypropylcellulose) (HPC) 98 % of control | [15] 102 % of control | [16] 111 % of control

OCCNc1cc(Cl)c(N=C2N(Cc3ccccc3)CCN2Cc2ccccc2)c(Cl)c1
inactive: [2] 102 % of control | [3] 97 % of control | [10] 100 % of control

COc1ccc2c(c1)CCC1=C2C=C[P+]1(C)C
inactive: [6] 94 % of control

N#Cc1[nH]nc2[nH]c(=S)[nH]c(=S)c12
inactive: dose: 100.0 mg/kg/injection, schedule: Q04DX002 (ip), vehicle: water 113 % of control | dose: 200.0 mg/kg/injection, schedule: Q04DX002 (ip), vehicle: water 110 % of control | dose: 400.0 mg/kg/injection, schedule: Q04DX002 (ip), vehicle: water 102 % of control

O=C(Nc1nccs1)Nc1ccc(Br)cc1C(F)(F)F
inactive: [6] 110 % of control | dose: 100.0 mg/kg/injection, schedule: Q01DX009 (ip), vehicle: saline with Tween-80 113 % of control | dose: 200.0 mg/kg/injection, schedule: Q01DX009 (ip), vehicle: saline with Tween-80 113 % of control

CC1CC2OC(=O)C3=C2C(CCC3)C12CC(c1ccoc1)OC2=O (stereo unspecified)
inactive: [4] 91 % of control | [5] 91 % of control and 89 % of control | [6] 93 % of control

O=[N+]([O-])/C=C\c1cc2c3c(c1)CCCN3CCC2
inactive: [4] 100 % of control | [5] 109 % of control | [6] 109 % of control

C=C(C)COc1ccc(C)cc1Br
inactive: [2] 101 % of control | [3] 103 % of control | [10] 113 % of control
